Measurements published in patent publication US11827628B2, “Compositions and methods for inhibition of the JAK pathway” (Rigel Pharmaceuticals, Inc., priority 2005, dated 2023).
Like-named read-outs stand apart in the source and are kept apart here.

Legend:
[1] = test system: IL-4 stimulated expression of CD23 in human Ramos B cells (JAK-1 and JAK-3); assay: Assay for Ramos B-Cell Line Stimulated with IL-4 (CD23 upregulation, FACS); format: cell-based; conditions: read-out: IC50, Example 41
Method in brief: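 Compound effect on IL-4-driven JAK1/JAK3 signalling is gauged as CD23 surface expression, measured by FACS after 20-24 h of stimulation with IL-4 at 50 units/mL final. A 1 h compound pre-treatment at 37 °C precedes stimulation, and IC50 is derived from the results.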

[2] = test system: Primary human T-cells; assay: Primary Human T-Cell Proliferation Assay Stimulated with IL-2 (CellTiter-Glo); format: cell-based; conditions: read-out: IC50, Example 42
Method in brief: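 IC50 derived from CellTiter-Glo ATP signal after 72 hours of IL-2-driven proliferation at 37° C. Cells: primary human T-cells from blood, stimulated beforehand 3-4 days on anti-CD3/anti-CD28 with IL-2, then rested from IL-2 before compound exposure in duplicate; IL-2-free wells served as unstimulated control.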

[3] = Ramos B cells stimulated with IL-4, CD23 expression by FACS
[4] = primary human T-cells stimulated with IL-2, proliferation

| Compound | IC50 [1, 3] [nM] | IC50 [2, 4] [nM] | IC50 ([1]; Ramos B-cell line stimulated with IL-4, CD23 expression by FACS) [nM] | IC50 ([2]; primary human T-cell proliferation stimulated with IL-2) [nM] |
| --- | --- | --- | --- | --- |
| N4-(3-Chloro-4-cyanomethyleneoxyphenyl)-5-fluoro-N2-(5-methyl-2H-1,1-dioxide-1,2,4-benzothiadiazin-7-yl)-2,4-pyrimidinediamine [VIII-2] | 178 | 409 | – | – |
| CCS(=O)(=O)N1CCc2cc(Nc3nc(Nc4cccc(S(N)(=O)=O)c4)ncc3F)ccc2C1 [VII-14, N2-(3-aminosulfonyl)phenyl-N4-[(N-ethylsulfonyl)-1,2,3,4-tetrahydroisoquinolin-6-yl]-5-fluoro-2,4-pyrimidinediamine] | 103 | 177 | – | – |
| Cc1ccc(Nc2ncc(F)c(Nc3ccc4c(c3)CNCC4)n2)cc1S(N)(=O)=O [VII-16, N2-(3-Aminosulfonyl-4-methylphenyl)-5-fluoro-N4-(1,2,3,4-tetrahydroisoquin-7-yl)-2,4-pyrimidinediamine] | 275 | 1070 | – | – |
| N#CCN1C(=O)CSc2ccc(Nc3nc(Nc4cccc(S(N)(=O)=O)c4)ncc3F)cc21 [VII-36, N2-(3-Aminosulphonylphenyl)-5-fluoro-N4-(3-oxo-4-cyanomethyl-benzo[1,4]thiazin-6-yl)-2,4-pyrimidinediamine] | 29.4 | 119 | – | – |
| Cc1ccc(Nc2ncc(F)c(Nc3ccc4c(c3)NC(=O)CS4)n2)cc1S(N)(=O)=O [VII-45, N2-(3-Aminosulphonyl-4-methyl-phenyl)-5-fluoro-N4-(3-oxo-4H-benzo[1,4]thiazin-6-yl)-2,4-pyrimidinediamine] | 43.9 | 282 | – | – |
| CC(C)(Oc1ccc(Nc2nc(Nc3cccc(S(N)(=O)=O)c3)ncc2F)cc1)C(N)=O [Compound I-126, N4-[4-(1-Aminocarbonyl-1-methyl)ethoxy]phenyl-N2-(3-aminosulfonyl)phenyl-5-fluoro-2,4-pyrimidinediamine] | – | – | 355 | 610 |
| NC1CCOc2ccc(Nc3nc(Nc4ccc(S(N)(=O)=O)cc4)ncc3F)cc21 (stereo not shown) [VII-29, N2-(4-Aminosulfonylphenyl)-N4-(chroman-4-amine-6-yl)-5-fluoro-2,4-pyrimidinediamine] | 47.6 | 1460 | – | – |
| COCCn1ncc2cc(Nc3nc(Nc4cccc(S(N)(=O)=O)c4)ncc3F)ccc21 [VII-23, N2-(3-Aminosulfonylphenyl)-5-fluoro-N4-[1-(2-methoxyethyl)indazolin-5-yl]-2,4-pyrimidinediamine] | 129 | 161 | – | – |
